Six molecules from the NIST ThermoML archive (doi:10.1016/j.fluid.2017.05.024) can be followed below.

For data set [1] the following is noted: 298.15 K, Liquid.
The nature of data set [2]: xn = mol fraction of the nth substance listed. Particulars: 298.15 K, 100 kPa, Liquid, Vibrating tube method.

Numbers after ± are expanded uncertainties.

Consider `OCCO` [1,2-ethanediol], for which the mass density in data set [1] (100 kPa, Vibrating tube method) stood at 1112.1 ± 1.4 kg/m3.

As for `OCCO` [1,2-ethanediol] + CCCC[N+](CCCC)(CCCC)CCCC.[Br-], the mass density in data set [2] (x2 = 0) is given as 1112.1 ± 1.4 kg/m3. For the molecule `c1c[nH]cn1` [1H-imidazole] + CCCC[N+](CCCC)(CCCC)CCCC.[Br-], in data set [2] (x2 = 0.333), the mass density turned out to be 1092.2 ± 1 kg/m3. As to `OCC(O)CO` [glycerol], the mass density in data set [1] (101.33 kPa, Pycnometric method) is reported as 1262 ± 2 kg/m3. With `CCCC[N+](CCCC)(CCCC)CCCC.[Br-]` [tetrabutylammonium bromide] + OCC(O)CO, the mass density in data set [2] (x1 = 0.2) is given as 1137.1 ± 1.3 kg/m3. Still for that read-out and setting: under `CCCC[N+](CCCC)(CCCC)CCCC.[Br-]` [tetrabutylammonium bromide] + OCCO stands 1069.1 ± 1.2 kg/m3.
